Data on three molecules can be found in US5284872A, “Nitrato alkanoic acid derivatives, methods for their production, pharmaceutical compositions containing the derivatives and medicinal uses thereof” (Schwarz Pharma AG, priority 1990, dated 1994).

The nature of assay [1]: NO release / rate of NO formation from organic nitrates. The note with it: pH 7.4; for rate of NO formation: 1 mM compound, same conditions as ISDN.
The subject of assay [2] is soluble guanylate cyclase. The experiment in a line: Stimulation of soluble guanylate cyclase. The class given is biochemical. Particulars: for stimulation of guanylate cyclase, dependence on cysteine: with or without cysteine.
Assay [3] relates to precontracted rat aortic rings. The experiment in a line: Relaxation of precontracted rat aortic rings. The note with it: for EC50: read-out: EC50 of concentration-dependent relaxation; for potency relative to ISDN (factor): versus isosorbid dinitrate. The text has this:
Compounds SPM 5185 and SPM 5186 caused a similar concentration-dependent relaxation of precontracted rat aortic rings with a potency exceeding that of ISDN (isosorbid dinitrate) by a factor of 5 (EC50 approx. 10^-6 M).

Assay [4] concerns normotonous conscious rats and spontaneous hypertensive rats. The experiment in a line: Peroral application to conscious rats: arterial pressure and heart rate. The class given is in vivo, rat.
The next assay relates to conscious beagle dogs. The experiment in a line: Hemodynamic profile in conscious beagle dogs. It counts as in vivo, beagle dog. Particulars: for mean arterial and venous pressure: 0.01-1 μmol/kg i.v. and 1-10 μmol/kg p.o.; for arterial vessel compliance / cardiac output: i.v. and p.o.; for effectiveness in reducing arterial and central venous pressure compared with GTN (dose-response curves): versus GTN and IS-5-N. The text has this: The hemodynamic profile of SPM 5185 and SPM 5186 in direct comparison to classical nitrates was investigated in conscious beagle dogs.

In assay [5] the test system is normotonous (WKY) and spontaneously hypertensive rats (SHR). The experiment in a line: Endothelium dependent and independent blood pressure regulation in chronically instrumented conscious rats (acetylcholine and adenosine as test stimuli). The class given is in vivo, rat. Particulars: single oral application. The text has this: The effect of a single peroral application of SPM 5186 on endothelium dependent and independent blood pressure regulation was investigated in chronically instrumented conscious rats with acetylcholine and adenosine serving as test stimuli.

On to `CCOC(=O)[C@H](CSC(=O)C(C)NC(C)=O)NC(=O)C(C)(C)CO[N+](=O)[O-]` (stereo partly drawn) [SPM 5185, N-nitrato-pivaloyl-S-(N-acetyl-alanyl)-L-cysteine ethyl ester], for which the “rate of NO formation” value in assay [1] was 35.1±5.1 nM NO/min. Besides, the “stimulation of guanylate cyclase, dependence on cysteine” value in assay [2] is listed as “stimulated guanylate cyclase only in the presence of cysteine”. Also, in assay [3], the EC50 is roughly 1000 nM and the “potency relative to ISDN (factor)” value is on record as 5. For the same molecule, in assay [4] (normotonous conscious rats), the heart rate result is “only a slight increase” and the mean arterial pressure entry was “nearly no influence”. In the assay with conscious beagle dogs, the “estimated duration of action” value was “long-acting nitrates”; the “mean arterial and venous pressure” value is reported as “dose-dependent decrease”; the arterial vessel compliance entry was “enhanced”; the cardiac output entry is “remained unaffected”. The “effectiveness in reducing arterial and central venous pressure compared with GTN (dose-response curves)” value with conscious beagle dogs is “even more effective than the most potent classical nitrate GTN”.

As to `CCOC(=O)[C@H](CSC(=O)CNC(C)=O)NC(=O)C(C)(C)CO[N+](=O)[O-]` [SPM 5186, N-nitrato-pivaloyl-S-(N-acetyl-glycyl)-L-cysteine ethyl ester], in assay [1], the “rate of NO formation” value is 24.8±5.4 nM NO/min. Further, in assay [2], the “stimulation of guanylate cyclase, dependence on cysteine” value is listed as “stimulated guanylate cyclase only in the presence of cysteine”. In addition, in assay [3], the EC50 is roughly 1000 nM and the “potency relative to ISDN (factor)” value amounted to 5. For the same molecule, in assay [5], the “alteration of endogenous dilator mechanisms” value is listed as “Neither in normotonous (WKY) nor in spontaneously hypertensive rats (SHR) could any significant alteration of endogenous dilator mechanisms be observed”. In addition, the “systolic and diastolic arterial blood pressure” value in assay [4] (same dose, spontaneous hypertensive rats) is on record as “marked decrease”. Further, in the assay on conscious beagle dogs, the “estimated duration of action” value was “long-acting nitrates”; the “mean arterial and venous pressure” value is “dose-dependent decrease”; the arterial vessel compliance result is given as “enhanced”; the cardiac output result is reported as “remained unaffected”. In the assay on conscious beagle dogs, the “effectiveness in reducing arterial and central venous pressure compared with GTN (dose-response curves)” value is on record as “even more effective than the most potent classical nitrate GTN”.

As for `CCOC(=O)[C@H](CS)NC(=O)C(C)(C)CO[N+](=O)[O-]` [SPM 3672, nitratopivaline carboxylic acid-L-cysteine ethyl ester, reference compound], the “spontaneous NO release” value in assay [1] (absence of exogenous cysteine, concentration of 1 mM) was found to be 42.7±9.8 nM NO/min. Further, in assay [2] (absence of exogenous cysteine), the “stimulation of soluble guanylate cyclase” value is “stimulated soluble guanylate cyclase”. In assay [2] (addition of cysteine), the “effect of addition of cysteine on enzyme stimulation” value was “did not further enhance enzyme stimulation”.
